From patent publication US12557811B2, “Effective and eco-friendly disinfectant” (The Hong Kong University of Science and Technology, priority 2022, dated 2026)
Like-named read-outs stand apart in the source and are kept apart here.

Legend:
[1] = test system: E. coli; assay: Disinfection experiments, membrane filter enumeration, E. coli; type: cell-based, Escherichia coli
Description: Disinfection experiments were performed in phosphate buffer saline (PBS; 10 mM, pH 7.2) with an initial concentration of E. coli of 10^6-10^7 colony forming units per milliliter (CFU mL^−1). Different concentrations of disinfection byproducts were added to the cell suspensions individually at room temperature (˜22° C.) with a contact time of 5 min. After the given contact time, the microorganism cells were enumerated following a membrane filter method. Briefly, serial ten-fold dilutions were conducted for the disinfected samples and the control sample without disinfection. Each diluted suspension was subjected to filtration through 0.45-μm membrane, which was then placed on a petri dish containing m-FC medium. After incubation at 45° C. for 24 hours, the colony forming units within a statistically reasonable range (20-80) were counted. The disinfection experiments were performed in duplicate. All the materials for the disinfection experiments were autoclaved at 121° C. for 15 min and cooled to room temperature before use.
(§1) The disinfection experiments were performed in PBS solutions (10 mM, pH 7.2) with an initial concentration of E. coli, S. aureus, or C. albicans of 10^6-10^7 CFU mL^−1. Different concentrations of 2,6-DCQ or PCMX were added to the cell suspensions at room temperature (˜22° C.) After the given contact time (i.e., 5 min), the microorganism cells were enumerated following a membrane filter method. Briefly, serial ten-fold dilutions were conducted for the disinfected samples and the control sample without disinfection. Each diluted suspension was filtered through a 0.45-μm filter paper, which was then placed on a petri dish. The petri dishes containing E. coli, S. aureus, and C. albicans were incubated in m-FC medium at 45° C. for 24 h, Tryptone Soya broth at 37° C. for 24 h, and Sabouraud Dextrose broth at 37° C. for 24 h, respectively. After incubation, the colony forming units within a statistically reasonable range (20-80) were counted. The disinfection experiments were performed in duplicate. All the materials for the disinfection experiments were autoclaved at 121° C. for 15 min and cooled to room temperature before use.
The disinfection experiments were performed in PBS solutions (10 mM, pH 7.2) with an initial concentration of E. coli of 10^6-10^7 CFU mL^−1. 2,5-Dichloro-1,4-benzoquinone (7.5 and 15 mg L^−1) or 2,6-DCQ (7.5 and 15 mg L^−1) was added to the cell suspensions at room temperature (˜22° C.). After the given contact time (i.e., 5 min), the microorganism cells were enumerated following a membrane filter method. Briefly, serial ten-fold dilutions were conducted for the disinfected samples and the control sample without disinfection. Each diluted suspension was subjected to filtration through 0.45-μm membrane, which was then placed on a petri dish. The petri dishes containing E. coli were incubated in m-FC medium at 45° C. for 24 hours. After incubation, the colony forming units within a statistically reasonable range (20-80) were counted. The disinfection experiments were performed in duplicate. All the materials for the disinfection experiments were autoclaved at 121° C. for 15 min and cooled to room temperature before use.
The disinfection experiments were performed in PBS solutions (10 mM, pH 7.2) with an initial concentration of E. coli of 10^6-10^7 CFU mL^−1. 2,6-DBQ (2,6-dibromo-1,4-benzoquinone), 2,6-DIQ (2,6-diiodo-1,4-benzoquinone), or 2,6-DCQ was added to the cell suspensions at room temperature (˜22° C.) with a contact time of 5 min. After the given contact time, the microorganism cells were enumerated following a membrane filter method. Briefly, serial ten-fold dilutions were conducted for the disinfected samples and the control sample without disinfection. Each diluted suspension was subjected to filtration through 0.45-μm membrane, which was then placed on a petri dish. The petri dishes containing E. coli were incubated in m-FC medium at 45° C. for 24 hours.

[2] = test system: S. aureus; assay: Disinfection experiments, membrane filter enumeration, S. aureus; type: cell-based, Staphylococcus aureus; conditions: for inactivation rate constant / Dose for achieving 3-log (99.9%) inactivation: S. aureus
Description: as §1

[3] = test system: C. albicans; assay: Disinfection experiments, membrane filter enumeration, C. albicans; type: cell-based, Candida albicans; conditions: for inactivation rate constant / Dose for achieving 3-log (99.9%) inactivation: C. albicans
Description: as §1

[4] = test system: E. coli, S. aureus and C. albicans; assay: Disinfection experiments, comparison across the three types of pathogens; type: cell-based, Escherichia coli, Staphylococcus aureus, Candida albicans
Description: as §1

[5] = Degradation kinetics without solar irradiation (darkness); type: physicochemical
[6] = test system: zebrafish embryos; conditions: in vivo; cited from earlier work
[7] = test system: rainbow trout; conditions: environmentally relevant concentrations (˜4.2 μg L^−1); cited from earlier work
[8] = test system: antibiotic resistance genes; conditions: environmentally relevant concentrations; cited from earlier work
[9] = Degradation kinetics with solar irradiation
[10] = test system: P. dumerilii embryos; assay: P. dumerilii embryo developmental toxicity; type: in vivo, Platynereis dumerilii
Source text: The doses of 2,6-DCQ and PCMX for 3-log E. coli inactivation (pH 7.2) were set as the in-use concentrations, which were serially diluted and added to the embryos of a marine polychactc, Platynereis dumerilii, at 12-hour postfertilization. A dilution factor was defined as the ratio of the in-use concentration to the exposure concentration. Each exposure set contained a control sample (i.e., the embryos at 12-hour postfertilization developed in seawater). By 24-hour postfertilization, normally developed embryos should have reached the first larval stage. An inverted stereomicroscope (40× magnification) was used to observe the larvae. The normal development percentage was calculated as the ratio of normally developed embryos to total embryos. By plotting the curve of the normal development percentage versus the dilution factor, the EC50,DF value (i.e., the dilution factor corresponding to 50% of the normal development percentage of the control sample) was obtained using SigmaPlot 12. The developmental toxicity test was conducted in duplicate.

[11] = Storage stability in solid form or in an organic solvent; type: physicochemical
[12] = physchem
[13] = pH not given, read-out: Half-life, without solar irradiation (converted)

With “para-chloro-meta-xylenol [PCMX, reference compound]” the inactivation rate constant ([1]; E. coli) was 11000 µL/min/mg, the inactivation rate constant ([1]; E. coli, pH 7.2, contact time 5 min) was 11000 µL/min/mg and the “Dose for achieving 3-log (99.9%) inactivation” value ([1]; pH 7.2) was 188 mg/L. The inactivation rate constant [2] was 3500 µL/min/mg, the “Dose for achieving 3-log (99.9%) inactivation” value ([2]; pH 7.2, contact time 5 min) was 312 mg/L and the inactivation rate constant ([2]; pH 7.2, contact time 5 min) was 3500 µL/min/mg. The inactivation rate constant [3] was 3500 µL/min/mg, the “Dose for achieving 3-log (99.9%) inactivation” value ([3]; pH 7.2, contact time 5 min) was 325 mg/L and the inactivation rate constant ([3]; pH 7.2, contact time 5 min) was 3500 µL/min/mg. The “in-use doses for 99.9% inactivation, times higher than those of 2,6-DCQ” value ([4]; three types of pathogens, contact time 5 min) was 10-15 times, the “Half-life, without solar irradiation” value ([5]; pH 8.2) was 5578 h and the “k, degradation, without solar irradiation” value ([5]; pH 8.2) was 0.00012 h⁻¹. The “Half-life, without solar irradiation” value ([5]; seawater pH (pH 8.2)) was roughly 5760 h, the “adverse effects in zebrafish embryos” value [6] was “mortality, morphological malformations, and neurotoxicity” and the “effects of chronic exposure in rainbow trout” value [7] was “gene regulation and morphological changes”. The “effect on antibiotic resistance genes” value [8] was “promote the spread of antibiotic resistance genes”, the “Half-life, with solar irradiation” value ([9]; pH 8.2) was 257 h and the “k, degradation, with solar irradiation” value ([9]; pH 8.2) was 0.0027 h⁻¹. For the same compound, the “half-life under solar irradiation” value ([9]; pH 8.2, seawater pH) was 257 h.

For `O=C1C=C(Cl)C(=O)C(Cl)=C1` [2,6-DCQ, 2,6-dichloro-1,4-benzoquinone], the inactivation [1] was 99.9%, the inactivation rate constant [1] was 91700 µL/min/mg and the “dose required for 99.9% inactivation, times lower than those of the other nine disinfection byproducts” value ([1]; E. coli, contact time of 5 minutes) was 8.8-500 times. For the same compound, the “inactivation rate constant, times greater than those of other disinfection byproducts” value ([1]; E. coli, versus the other nine disinfection byproducts) was 8.8-500 times, the “Dose for achieving 3-log (99.9%) inactivation” value ([1]; pH 7.2) was 12.8 mg/L and the inactivation rate constant ([1]; pH 7.2) was 91700 µL/min/mg. The inactivation rate constant [2] was 20000 µL/min/mg, the “Dose for achieving 3-log (99.9%) inactivation” value ([2]; pH 7.2, contact time 5 min) was 29.4 mg/L and the inactivation rate constant ([2]; pH 7.2, contact time 5 min) was 20000 µL/min/mg. For the same compound, the inactivation ([2]; Staphylococcus aureus ATCC 25923, contact time of 5 minutes) was 99.9%, the inactivation rate constant [3] was 31200 µL/min/mg and the “Dose for achieving 3-log (99.9%) inactivation” value ([3]; pH 7.2, contact time 5 min) was 35.7 mg/L. For the same compound, the inactivation rate constant ([3]; pH 7.2, contact time 5 min) was 31200 µL/min/mg, the inactivation ([3]; Candida albicans ATCC 14053, contact time of 5 minutes) was 99.9% and the “disinfection efficacy, times higher than PCMX” value [4] was 10-15 times. The “reduction of disinfectant doses for 99.9% inactivation by switching from PCMX to 2,6-DCQ” value ([4]; E. coli, S. aureus and C. albicans) was 89-93%, the “in-use doses for 99.9% inactivation, times lower than the corresponding doses of PCMX” value ([4]; E. coli, S. aureus and C. albicans, contact time 5 min) was 10-15 times and the half-life ([5]; buffer, pH 6.2, read-out: half-life in darkness (converted)) was 65.5 h. For the same compound, the half-life ([5]; buffer, pH 7.2, read-out: half-life in darkness (converted)) was 15.1 h, the “Half-life, without solar irradiation” value ([5]; pH 6.2) was 65.5 h and the “k, degradation, without solar irradiation” value ([5]; pH 6.2) was 0.010 h⁻¹. For the same compound, the “Half-life, without solar irradiation” value ([5]; pH 7.2) was 15.1 h, the “k, degradation, without solar irradiation” value ([5]; pH 7.2) was 0.046 h⁻¹ and the “Half-life, without solar irradiation” value ([5]; pH 8.2) was 1.74 h. The “k, degradation, without solar irradiation” value ([5]; pH 8.2) was 0.397 h⁻¹, the “developmental toxicity, times lower than PCMX” value ([10]; 48 hours after discharge into seawater) was 31 times and the “developmental toxicity compared with PCMX” value ([10]; after 2 hours of degradation in seawater) was “lower developmental toxicity”. The time remaining stable [11] was “at least 24 months”, the “Half-life, with solar irradiation” value ([9]; pH 6.2) was 4.13 h and the “k, degradation, with solar irradiation” value ([9]; pH 6.2) was 0.17 h⁻¹. For the same compound, the “half-life under solar irradiation” value ([9]; pH 7.2) was 3.20 h, the “k, degradation, with solar irradiation” value ([9]; pH 7.2) was 0.22 h⁻¹ and the “Half-life, with solar irradiation” value ([9]; pH 8.2) was 1.33 h. For the same compound, the “k, degradation, with solar irradiation” value ([9]; pH 8.2) was 0.52 h⁻¹ and the “half-lives, times shorter than those of PCMX” value ([9]; seawater (pH 8.2), with and without solar irradiation) was “about 200 times”.

With `Oc1cc(I)c(O)cc1I` [2,5-Diiodohydroquinone, 2,5-diiodohydroquinone] the “k, degradation, without solar irradiation” value ([5]; pH not given) was 0.078 h⁻¹, the half-life [5, 13] was 0.15 h and the half-life [9] was 0.15 h. For the same compound, the “k, degradation, with solar irradiation” value ([9]; pH not given) was 0.756 h⁻¹.

In the case of `O=C1C=C(Br)C(=O)C(Br)=C1` [2,6-DBQ, 2,6-dibromo-1,4-benzoquinone], the “disinfection efficacy compared with 2,6-DCQ” value ([1]; pH 7.2) is reported as “comparable disinfection efficacy”.

In the case of `Oc1ccc(Br)cc1Br` [2,4-Dibromophenol, 2,4-dibromophenol], the half-life [9] is reported as 35 h and the “k, degradation, with solar irradiation” value ([9]; pH not given) is reported as 0.0201 h⁻¹.

With `Oc1ccc(I)cc1I` [2,4-Diiodophenol, 2,4-diiodophenol] the “Half-life, with solar irradiation” value ([9]; pH not given) was 83 h and the “k, degradation, with solar irradiation” value ([9]; pH not given) was 0.0083 h⁻¹.

For `Oc1cc(Br)c(O)cc1Br` [2,5-Dibromohydroquinone, 2,5-dibromohydroquinone], the “k, degradation, without solar irradiation” value ([5]; pH not given) was 0.0767 h⁻¹, the half-life [5, 13] was 0.15 h and the half-life [9] was 0.15 h. For the same compound, the “k, degradation, with solar irradiation” value ([9]; pH not given) was 0.787 h⁻¹.

With `O=C1C=C(I)C(=O)C(I)=C1` [2,6-DIQ, 2,6-diiodo-1,4-benzoquinone] the “disinfection efficacy compared with 2,6-DCQ” value ([1]; pH 7.2) was “comparable disinfection efficacy”.

In the case of `Oc1ccc(Cl)cc1Cl` [2,4-Dichlorophenol, 2,4-dichlorophenol], the half-life [12] is reported as 44 h and the “k, degradation, with solar irradiation” value ([9]; pH not given) is reported as 0.0157 h⁻¹.

For `O=C1C=C(Cl)C(=O)C=C1Cl` [2,5-DCQ, 2,5-dichloro-1,4-benzoquinone], the “disinfection efficacy compared with 2,6-DCQ” value ([1]; pH 7.2) was “comparable disinfection efficacy”.

With `Oc1cc(Cl)c(O)cc1Cl` [2,5-Dichlorohydroquinone, 2,5-dichlorohydroquinone] the “k, degradation, without solar irradiation” value ([5]; pH not given) was 0.0922 h⁻¹, the half-life [5, 13] was 0.13 h and the half-life [9] was 0.11 h. For the same compound, the “k, degradation, with solar irradiation” value ([9]; pH not given) was 0.101 h⁻¹.
